# From patent publication US12564622B2, “Preventing cytokine release syndrome” (priority 2017, dated 2026)
# Values joined by “and” are separate entries in the source; they are usually repeats but may differ in a detail not shown here. Equal entries are not always repeated. “Also recorded” adds a separate entry of the source.
# Tests used:
# [1] = system: Raji-bearing NSGS mice with high tumour burden treated with hCART19; assay: hCART19 treatment of Raji-bearing NSGS mice, high tumour burden; assay type: in vivo, mouse (NSGS)
# Text: Six to eight-week old female NSG-SGM3 mice (NOD.Cg-Prkdcscid Il2rgtm1Wjl Tg(CMVIL3,CSF2,KITLG)1Eav/MloySzJ, Stock #013062) were purchased from the Jackson Laboratory. Raji cells were transfected with a luciferase construct via lentivirus to create Raji-luc cells as described elsewhere (Bai et al., 2015 Neuro Oncol., 17:545). Human CD19scFv-CD28-4-1BB-CD3ζ CART cells (PM-CAR1003, CART19) from Promab Biotechnologies were maintained for less than 7 days in AIM-V medium (GIBCO) supplemented with 300 IU/ml of hIL2 (Peprotech), 5% FBS and antibiotics. One day before the injection of Raji cells, mice were irradiated at a dose of 2 Gy in a CIXD Xstahl device. One million Raji-luc cells were injected IV via tail vein on day zero. Six days later, tumor loads were assessed using a Xenogen instrument and 15×10^6 CART19 cells were injected IV. Metyrosine was injected IP at 60 mg/kg/day for three days before the CART19 injection. On the day of CART19 injection, a fourth dose of 60 mg/kg was given IP and the mice were subsequently injected four more times at daily intervals at 30 mg/kg.
# Six to eight weeks old female NSG-SGM3 (NSGS) mice (NOD.Cg-Prkdcscid Il2rgtm1WjlTg (CMV-IL3, CSF2, KITLG) 1Eav/MloySzJ, Stock #013062) were purchased from the Jackson Laboratory. Raji cells were transfected with a luciferase construct via lentivirus to create Raji-luc cells. NSGS is a triple transgenic strain expressing human IL3, GM-CSF and SCF combine the features of the highly immunodeficient NOD scid gamma (NSG) mouse. One day before the injection of Raji cells, mice were irradiated at a dose of 2 Gy in a CIXD Xstahl device. In high tumor burden experiments in FIG. 5, 10^6 Raji-luc cells were injected IV via tail vein. Six days later, tumor loads were assessed using a Xenogen instrument and 15×10^6 hCART19 cells or untransduced T-cells were injected IV. In low tumor burden experiments in FIG. 6, 2×10^5 Raji-luc cells were injected IV via tail vein. Four days later, tumor loads were assessed using a Xenogen instrument and 15×10^6 hCART19 cells were injected IV. Metyrosine was injected IP at 60 mg/kg/day for three days before the hCART19 injection. On the day of CART19 injection, a fourth dose of 60 mg/kg was given IP and the mice were subsequently injected four more times at daily intervals at 30 mg/kg.
# LPS-injected BALB/c mice = assay type: in vivo, mouse (BALB/c)
# Protocol: LPS from Escherichia coli 0111:B4 was formulated as a 10 mg/ml solution in water and stored in −80° C. LPS was injected intraperitoneally at a dose of 3.5 mg/kg. […] Human ANP (Sigma) was dissolved in saline, loaded in mini-osmotic pumps (ALZET) with a release rate of 12 μg/day and implanted subcutaneously in the back of mice 12 hours before the LPS injection. Mice implanted with pumps loaded with saline served as controls. […] […] The control groups were injected with PBS. […] Hydration of mice was supported by daily subcutaneous injection of 0.5 ml saline.
# LPS from Escherichia coli 0111:B4 was formulated as a 10 mg/ml solution in water and stored in −80° C. In Balb/C mice, LPS was injected intraperitoneally at a lethal dose of 3.5 mg/kg. […] In experiments with catecholamine pumps, a sublethal dose with 15-35% death rate was optimized in Balb/C mice. In TH+/+ and TH^ΔLysM mice with C57BL/6 background, a lethal dose was optimized at 5 mg/kg. Human ANP (Sigma) was dissolved in saline, loaded in mini-osmotic pumps (ALZET) with a release rate of 12 μg/day and implanted subcutaneously in the back of mice 12 hours before the LPS injection. Mice implanted with pumps loaded with saline served as controls. Metyrosine was freshly dissolved in PBS and injected IP at the indicated doses for three days prior to the LPS treatment. One hour before the LPS injection, metyrosine was injected into the lower abdomen contralateral to the side of LPS injection. The control groups were injected with PBS. For the following 3 days, metyrosine was injected IP at reduced indicated doses. Hydration of mice was supported by daily subcutaneous injection of 0.5 ml saline.
# [2] = 24 and 72 hours after hCART19, metyrosine pre-treatment
compound,measurement,setting,value
"C[C@](N)(Cc1ccc(O)cc1)C(=O)O [metyrosine, α-methyl-tyrosine]",circulating catecholamines,[1]; [2],significantly reduced; also recorded: significantly lower
same,circulating human and mouse cytokines,[1]; [2],significantly reduced; also recorded: significantly lowered
same,circulating catecholamines,"[1]; 24 and 72 hours after hCART19, metyrosine pre-treatment, listed as Metyrosine",able to block that effect
same,final outcome,"[1]; high tumour burden, hCART19 plus metyrosine",eventually died with progressive lymphoma
same,plasma dopamine,[1]; two time points after CART19 treatment,able to reduce dopamine production
same,levels of catecholamines,"LPS-injected BALB/c mice; LPS, metyrosine pre-treatment",substantially reduced
same,levels of inflammatory cytokines,"LPS-injected BALB/c mice; LPS, metyrosine pre-treatment",substantially reduced
same,mice surviving,"LPS-injected BALB/c mice; lethal dose LPS IP, metyrosine pre-treatment",~70% and ~75%
same,efficacy at 20 mg/kg,"LPS-injected BALB/c mice; lethal dose LPS, metyrosine 20 mg/kg",ineffective
same,dependence of efficacy on dose,"LPS-injected BALB/c mice; lethal dose LPS, metyrosine 20, 30, 40 mg/kg",dose-dependent
